# Data reported in US20250205344A1, “2,4-DIOXOTETRAHYDROPYRIMIDINYL DERATIVES AS DEGRONS IN PROTACS” (GLAXOSMITHKLINE INTELLECTUAL PROPERTY DEVELOPMENT LIMITED, priority 2022, published 2025).
# Structures can show the parent of a compound that is named as a salt.
# Biological target: T1, Androgen Receptor (Homo sapiens, UniProt P10275, T878A)
# T1 construct: the AR gene was modified, using CRISPR/Cas9 editing, so the expressed AR protein included an 11 amino acid HiBiT tag; endogenous in cells; host or cells: clonal LnCaP-derived line, AR gene edited by CRISPR/Cas9
# T1 sequence (P10275 whole entry T878A): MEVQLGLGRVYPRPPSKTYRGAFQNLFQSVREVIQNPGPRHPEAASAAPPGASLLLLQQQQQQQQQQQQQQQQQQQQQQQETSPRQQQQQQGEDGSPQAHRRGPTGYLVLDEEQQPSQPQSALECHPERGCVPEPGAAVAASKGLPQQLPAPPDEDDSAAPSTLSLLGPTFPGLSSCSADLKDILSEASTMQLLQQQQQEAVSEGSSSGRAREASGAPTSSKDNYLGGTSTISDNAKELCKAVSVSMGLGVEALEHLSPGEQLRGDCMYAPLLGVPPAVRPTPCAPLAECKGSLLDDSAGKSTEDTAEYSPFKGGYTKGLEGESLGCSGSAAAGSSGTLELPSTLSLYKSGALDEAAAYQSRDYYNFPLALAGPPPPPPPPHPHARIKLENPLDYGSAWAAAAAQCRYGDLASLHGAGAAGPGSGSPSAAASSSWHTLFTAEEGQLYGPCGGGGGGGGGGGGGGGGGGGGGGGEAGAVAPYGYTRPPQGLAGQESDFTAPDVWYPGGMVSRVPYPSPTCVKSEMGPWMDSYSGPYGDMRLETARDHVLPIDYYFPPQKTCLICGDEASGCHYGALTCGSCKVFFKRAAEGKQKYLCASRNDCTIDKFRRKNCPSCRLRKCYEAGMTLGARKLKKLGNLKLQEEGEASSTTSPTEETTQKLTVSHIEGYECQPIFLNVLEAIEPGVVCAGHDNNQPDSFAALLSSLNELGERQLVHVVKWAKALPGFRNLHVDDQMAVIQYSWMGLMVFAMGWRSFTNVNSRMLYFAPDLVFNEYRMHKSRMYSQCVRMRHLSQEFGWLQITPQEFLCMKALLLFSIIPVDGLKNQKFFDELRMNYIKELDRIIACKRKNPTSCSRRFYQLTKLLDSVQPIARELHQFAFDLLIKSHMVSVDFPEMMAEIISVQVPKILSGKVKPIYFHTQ
# T1 sequence (Q96SW2 whole entry partner): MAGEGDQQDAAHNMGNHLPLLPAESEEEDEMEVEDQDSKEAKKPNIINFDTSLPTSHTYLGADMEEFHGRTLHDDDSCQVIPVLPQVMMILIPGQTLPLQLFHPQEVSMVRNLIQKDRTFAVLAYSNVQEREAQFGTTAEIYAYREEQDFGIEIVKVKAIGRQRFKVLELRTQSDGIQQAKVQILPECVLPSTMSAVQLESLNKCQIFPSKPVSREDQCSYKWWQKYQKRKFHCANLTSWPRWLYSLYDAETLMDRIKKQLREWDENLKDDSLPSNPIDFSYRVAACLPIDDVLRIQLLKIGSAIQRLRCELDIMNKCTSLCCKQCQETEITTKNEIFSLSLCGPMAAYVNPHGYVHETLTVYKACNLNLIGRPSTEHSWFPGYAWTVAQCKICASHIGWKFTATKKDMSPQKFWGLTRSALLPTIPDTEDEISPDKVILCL
# T1 sequence (Q16531 whole entry partner): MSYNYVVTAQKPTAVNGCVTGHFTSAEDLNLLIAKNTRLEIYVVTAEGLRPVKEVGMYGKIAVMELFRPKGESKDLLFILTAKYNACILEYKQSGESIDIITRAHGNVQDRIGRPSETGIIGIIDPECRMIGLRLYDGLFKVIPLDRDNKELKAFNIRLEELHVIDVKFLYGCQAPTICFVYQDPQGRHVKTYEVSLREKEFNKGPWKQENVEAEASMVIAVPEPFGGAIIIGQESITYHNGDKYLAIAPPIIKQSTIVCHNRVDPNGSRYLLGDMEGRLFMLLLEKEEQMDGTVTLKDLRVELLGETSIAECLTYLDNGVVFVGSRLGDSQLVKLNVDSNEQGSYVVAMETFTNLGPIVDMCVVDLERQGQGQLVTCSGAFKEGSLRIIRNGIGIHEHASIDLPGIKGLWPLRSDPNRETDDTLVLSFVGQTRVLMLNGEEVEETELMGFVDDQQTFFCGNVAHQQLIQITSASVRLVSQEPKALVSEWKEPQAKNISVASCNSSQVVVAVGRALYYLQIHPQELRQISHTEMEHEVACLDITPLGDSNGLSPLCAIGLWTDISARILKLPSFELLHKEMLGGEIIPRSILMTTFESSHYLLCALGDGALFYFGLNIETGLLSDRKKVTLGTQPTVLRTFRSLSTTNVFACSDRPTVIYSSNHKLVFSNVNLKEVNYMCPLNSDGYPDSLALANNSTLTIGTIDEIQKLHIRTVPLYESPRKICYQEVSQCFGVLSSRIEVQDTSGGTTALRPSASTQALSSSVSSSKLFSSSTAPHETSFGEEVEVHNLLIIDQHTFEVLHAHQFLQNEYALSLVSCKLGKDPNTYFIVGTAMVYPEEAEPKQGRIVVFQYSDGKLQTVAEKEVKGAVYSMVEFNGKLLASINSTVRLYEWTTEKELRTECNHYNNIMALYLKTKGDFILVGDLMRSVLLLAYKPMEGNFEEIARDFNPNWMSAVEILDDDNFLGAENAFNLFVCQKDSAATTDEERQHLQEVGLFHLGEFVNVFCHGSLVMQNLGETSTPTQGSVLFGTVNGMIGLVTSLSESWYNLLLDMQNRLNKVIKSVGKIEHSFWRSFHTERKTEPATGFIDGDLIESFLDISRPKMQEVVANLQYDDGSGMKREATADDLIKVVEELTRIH
# Experiment: Androgen Receptor Degradation Assay (Nano-Glo HiBiT)
# Format: cell-based
# Settings: LNCaP, 18 h, HiBiT-tagged AR in human LnCaP cells, read-out: mean asymptote max
# In short: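 LnCaP cells with CRISPR-knocked-in N-terminal HiBiT-tagged AR (10,000/well) treated 18 h at 37 °C with PROTACs over 11 threefold concentrations; lytic HiBiT luminescence normalised to DMSO (0%) and cell-free (100%) controls. Relative DC50 = 4-parameter fit inflection; absolute DC50 = 50% degradation interpolation; Dmax = maximum observed degradation.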
row,SMILES,Dmax
1,"N#Cc1ccc(O[C@H]2CC[C@H](NC(=O)c3ccc(N4CCC(CN5CCC6(CC5)CC(n5ccc7c(N8CCC(=O)NC8=O)cccc75)C6)CC4)nn3)CC2)cc1Cl [EAR185, N-((1r,4r)-4-(3-Chloro-4-cyanophenoxy)cyclohexyl)-6-(4-((2-(4-(2,4-dioxotetrahydropyrimidin-1(2H)-yl)-1H-indol-1-yl)-7-azaspiro[3.5]nonan-7-yl)methyl)piperidin-1-yl)pyridazine-3-carboxamide hydrochloride]",≥ 50%
2,"N#Cc1ccc(O[C@H]2CC[C@H](NC(=O)c3ccc(N4CCC(CN5CCC(CCn6ccc7c(N8CCC(=O)NC8=O)cccc76)CC5)CC4)nn3)CC2)cc1Cl [EAR179, N-((1r,4r)-4-(3-chloro-4-cyanophenoxy)cyclohexyl)-6-(4-((4-(2-(4-(2,4-dioxotetrahydropyrimidin-1(2H)-yl)-1H-indol-1-yl)ethyl)piperidin-1-yl)methyl)piperidin-1-yl)pyridazine-3-carboxamide hydrochloride]",≥ 50%
3,"N#Cc1ccc(O[C@H]2CC[C@H](NC(=O)c3ccc(N4CCC(N5CCC(Cn6ccc7c(N8CCC(=O)NC8=O)cccc76)CC5)CC4)nn3)CC2)cc1Cl [EAR27, N-((1r,4r)-4-(3-Chloro-4-cyanophenoxy)cyclohexyl)-6-(4-((4-(2,4-dioxotetrahydropyrimidin-1(2H)-yl)-1H-indol-1-yl)methyl)-[1,4′-bipiperidin]-1′-yl)pyridazine-3-carboxamide hydrochloride]",≥ 50%
4,"C[C@@H]1CN(c2ccc(C#N)c(Cl)c2)[C@@H](C)CN1C(=O)c1ccc(OCCCCCN2CCC(n3ccc4c(N5CCC(=O)NC5=O)cncc43)CC2)nc1 [EAR165, 2-Chloro-4-((2S,5R)-4-(6-((5-(4-(4-(2,4-dioxotetrahydropyrimidin-1(2H)-yl)-1H-pyrrolo[2,3-c]pyridin-1-yl)piperidin-1-yl)pentyl)oxy)nicotinoyl)-2,5-dimethylpiperazin-1-yl)benzonitrile]",≥ 50%

# Next, values leading:
row,Dmax,SMILES
1,≥ 50%,"N#Cc1ccc(O[C@H]2CC[C@H](NC(=O)c3cnc(N4CCC(CN5CCC(n6ccc7c(N8CCC(=O)NC8=O)cccc76)CC5)CC4)nc3)CC2)cc1Cl [AR10, N-((1r,4r)-4-(3-Chloro-4-cyanophenoxy)cyclohexyl)-2-(4-((4-(4-(2,4-dioxotetrahydropyrimidin-1(2H)-yl)-1H-indol-1-yl)piperidin-1-yl)methyl)piperidin-1-yl)pyrimidine-5-carboxamide]"
2,≥ 50%,"N#Cc1ccc(O[C@H]2CC[C@H](NC(=O)c3ccc(N4CCC(n5ccc6c(N7CCC(=O)NC7=O)cccc65)CC4)cc3)CC2)cc1Cl [EAR54, N-((1r,4r)-4-(3-Chloro-4-cyanophenoxy)cyclohexyl)-4-(4-(4-(2,4-dioxotetrahydropyrimidin-1(2H)-yl)-1H-indol-1-yl)piperidin-1-yl)benzamide]"
3,≥ 50%,"N#Cc1ccc(O[C@H]2CC[C@H](NC(=O)c3ccc(N4CCC(CN5CCC(n6ccc7c(N8CCC(=O)NC8=O)cccc76)CC5)CC4)c(F)c3)CC2)cc1Cl [EAR206, N-((1r,4r)-4-(3-Chloro-4-cyanophenoxy)cyclohexyl)-4-(4-((4-(4-(2,4-dioxotetrahydropyrimidin-1(2H)-yl)-1H-indol-1-yl)piperidin-1-yl)methyl)piperidin-1-yl)-3-fluorobenzamide]"
4,≥ 50%,"N#Cc1ccc(O[C@H]2CC[C@H](NC(=O)c3ccc4c(c3)CCN(C(=O)CN3CCC(n5ccc6c(N7CCC(=O)NC7=O)cccc65)CC3)C4)CC2)cc1Cl [AR5, N-((1r,4r)-4-(3-Chloro-4-cyanophenoxy)cyclohexyl)-2-(2-(4-(4-(2,4-dioxotetrahydropyrimidin-1(2H)-yl)-1H-indol-1-yl)piperidin-1-yl)acetyl)-1,2,3,4-tetrahydroisoquinoline-6-carboxamide]"
